This passage reports IC50 results from patent US20250034150A1, “BTK INHIBITORS” (BIOGEN MA INC., priority 2021, published 2025).

The structures appear in SMILES notation. Counter-ions that a name gives are not always drawn. Like-named read-outs stand apart in the source and are kept apart here. Where only a bound is given, the exact number is not on record here.

The term IC50 denotes the concentration at which inhibition is half-maximal.

One assay deals with T1, BTK (Homo sapiens, UniProt Q06187).
T1 construct: purchased Upstate 14-552
In words: In Vitro BTK Kinase Assay: Btk-PolyGAT-LS Assay. The following applies: active BTK enzyme 0.25 nM, polyGAT 100 nM, 30 minutes, TRF readout; read-out: In Vitro BTK Kinase Assay IC50 Score. The format is biochemical. In a few lines: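 IC50 values came from a four-parameter fit, with DMSO controls as 100% activity and EDTA controls as 0%. The signal was TR-FRET from a Tb-PY20 antibody binding fluorescein-polyGAT (100 nM) phosphorylated by 0.25 nM BTK. Kinase reactions used 10 μM ATP, a 4-fold compound titration, and ran 30 minutes before EDTA stop.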

Assay [1] relates to CD69 expression on CD19+ B cells in human whole blood. The assay can be described thus: In Vitro whole blood CD69 Assay. The format is cell-based. The following applies: B-cell, read-out: In Vitro HWB CD69 Assay IC50 Score. In a few lines:
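Heparinized healthy-donor human whole blood was preincubated with compound (0.1% DMSO) for 30 min at 37 °C. Stimulation used 0.1 µg/mL anti-IgD-dextran or 20 µg/mL rabbit F(ab′)2 anti-IgD for 18–22 h at 37 °C. CD69 on gated CD19+ B cells was then measured by flow cytometry.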

Setting [2] is: human heparinized whole blood, anti-human IgD stimulation overnight, CD19+ B cells, flow cytometry.

T1 sequence (Q06187 whole entry): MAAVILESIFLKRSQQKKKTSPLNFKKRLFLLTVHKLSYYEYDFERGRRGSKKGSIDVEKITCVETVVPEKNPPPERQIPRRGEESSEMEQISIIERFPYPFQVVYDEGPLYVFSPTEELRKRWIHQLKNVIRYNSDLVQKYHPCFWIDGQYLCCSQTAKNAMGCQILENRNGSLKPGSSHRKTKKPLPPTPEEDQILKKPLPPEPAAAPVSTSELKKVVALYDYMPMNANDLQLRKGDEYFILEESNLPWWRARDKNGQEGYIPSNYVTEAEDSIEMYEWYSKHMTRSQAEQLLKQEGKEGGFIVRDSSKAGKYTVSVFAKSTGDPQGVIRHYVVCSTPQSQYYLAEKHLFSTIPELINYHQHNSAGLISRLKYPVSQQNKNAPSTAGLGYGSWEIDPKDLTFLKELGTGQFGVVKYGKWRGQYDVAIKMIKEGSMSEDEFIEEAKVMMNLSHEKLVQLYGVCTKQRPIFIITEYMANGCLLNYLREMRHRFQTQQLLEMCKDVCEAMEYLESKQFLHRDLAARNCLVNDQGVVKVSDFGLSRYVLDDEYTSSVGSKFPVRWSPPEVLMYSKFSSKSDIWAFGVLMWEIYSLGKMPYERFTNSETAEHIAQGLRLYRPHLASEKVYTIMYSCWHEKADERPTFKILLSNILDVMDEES

`CC(C)CN1CCN(Cc2ccc(-c3nc(-c4cnn(C)c4)cn4nccc34)cc2F)C(=O)C1` [Example 34, 1-(2-fluoro-4-(6-(1-methyl-1H-pyrazol-4-yl)pyrazolo[1,5-a]pyrazin-4-yl)benzyl)-4-isobutylpiperazin-2-one]: the IC50 at BTK was 1 to 10 nM; in assay [1] (setting [2]), 1000 to 10000 nM.
On the same counts, the results for `Cn1cc(-c2cn3nccc3c(N3CC[C@H](CNC(=O)c4cn(C(C)(C)C)nn4)[C@H](F)C3)n2)cn1` [Example 152, 1-(tert-butyl)-N-((3-fluoro-1-(6-(1-methyl-1H-pyrazol-4-yl)pyrazolo[1,5-a]pyrazin-4-yl)piperidin-4-yl)methyl)-1H-1,2,3-triazole-4-carboxamide] are 1 to 10 nM and 1000 to 10000 nM.
Take `Cn1cc(-c2cn3nccc3c(-c3ccc(CNC(=O)c4cnn(C(C)(C)C)c4)cc3)n2)cn1` [Example 2, 1-(tert-butyl)-N-(4-(6-(1-methyl-1H-pyrazol-4-yl)pyrazolo[1,5-a]pyrazin-4-yl)benzyl)-1H-pyrazole-4-carboxamide]: the IC50 on BTK was 1 to 10 nM; in assay [1] (setting [2]), less than 1000 nM.
On to `CC(C)(C)c1noc(C(=O)NCc2ccc(-c3nc(N4CCOCC4)cn4nccc34)cc2)n1` [Example 24, 3-(tert-butyl)-N-(4-(6-morpholinopyrazolo[1,5-a]pyrazin-4-yl)benzyl)-1,2,4-oxadiazole-5-carboxamide], for which the IC50 on BTK is 10 to 1000 nM; in assay [1] (setting [2]) it was 1000 to 10000 nM.
As for `Cn1cc(-c2cn3nccc3c(N3CC[C@H](CNC(=O)c4noc(C(C)(C)C)n4)[C@H](F)C3)n2)cn1` (single isomer, unassigned) [Example 155], the results for the IC50 (at BTK; in assay [1] (setting [2])) were 1 to 10 nM and 1000 to 10000 nM, respectively.
Turning to `Cn1cc(-c2cn3ncnc3c(N3CCC(CNC(=O)c4cn(C(C)(C)C)nn4)CC3)n2)cn1` [Example 74, 1-(tert-butyl)-N-((1-(6-(1-methyl-1H-pyrazol-4-yl)-[1,2,4]triazolo[1,5-a]pyrazin-8-yl)piperidin-4-yl)methyl)-1H-1,2,3-triazole-4-carboxamide], the IC50 on BTK was in the range of 10 to 1000 nM; in assay [1] (setting [2]), 1000 to 10000 nM.
Consider `Cn1cc(-c2cn3nccc3c(-c3cc(F)c(CNC(=O)c4coc(C(C)(C)C)n4)cc3F)n2)cn1` [Example 95, 2-(tert-butyl)-N-(2,5-difluoro-4-(6-(1-methyl-1H-pyrazol-4-yl)pyrazolo[1,5-a]pyrazin-4-yl)benzyl)oxazole-4-carboxamide], for which the results for the half-maximal inhibitory concentration (IC50) (at BTK; in assay [1] (setting [2])) were 1 to 10 nM and 1000 to 10000 nM, respectively.
With `Cn1cc(-c2cn3nccc3c(-c3ccc(CNC(=O)c4cnn(C(C)(C)C)n4)c(F)c3F)n2)cn1` [Example 92, 2-(tert-butyl)-N-(2,3-difluoro-4-(6-(1-methyl-1H-pyrazol-4-yl)pyrazolo[1,5-a]pyrazin-4-yl)benzyl)-2H-1,2,3-triazole-4-carboxamide], the IC50 is less than 1 nM on BTK and less than 1000 nM in assay [1] (setting [2]).
On the same counts, the results for `Cc1cc(-c2nc(-c3cnn(C)c3)cn3nccc23)ccc1CN1CCN(CC(C)C)CC1=O` [Example 30, 4-isobutyl-1-(2-methyl-4-(6-(1-methyl-1H-pyrazol-4-yl)pyrazolo[1,5-a]pyrazin-4-yl)benzyl)piperazin-2-one] are 1 to 10 nM and 1000 to 10000 nM.
Turning to `Cc1cc(-c2nc(N3CCN(C)CC3)cn3nccc23)ccc1CNC(=O)c1nnn(C(C)(C)C)n1` [Example 130], the IC50 was 1 to 10 nM at BTK and 1000 to 10000 nM in assay [1] (setting [2]).
For `Cn1cc(-c2cc(-c3ccc(CNC(=O)c4noc(C5(C)CC5)n4)c(F)c3)c3ccnn3c2)cn1` [Example 67, N-(2-fluoro-4-(6-(1-methyl-1H-pyrazol-4-yl)pyrazolo[1,5-a]pyridin-4-yl)benzyl)-5-(1-methylcyclopropyl)-1,2,4-oxadiazole-3-carboxamide], the results for the IC50 (at BTK; in assay [1] (Homo sapiens)) were less than 1 nM and less than 1000 nM, respectively.
Consider `Cn1cc(-c2cn3nccc3c(N3CCC(CNC(=O)c4cn(C(C)(C)C)nn4)CC3)n2)cn1` [Example 138, 1-(tert-butyl)-N-((1-(6-(1-methyl-1H-pyrazol-4-yl)pyrazolo[1,5-a]pyrazin-4-yl)piperidin-4-yl)methyl)-1H-1,2,3-triazole-4-carboxamide], for which the IC50 on BTK lay within 1 to 10 nM; in assay [1] (setting [2]), 1000 to 10000 nM.
`Cn1cc(-c2cn3nccc3c(N3CC[C@H](CNC(=O)c4noc(C5(C)CC5)n4)[C@H](F)C3)n2)cn1` [Example 154, N-(((3S,4R)-3-fluoro-1-(6-(1-methyl-1H-pyrazol-4-yl)pyrazolo[1,5-a]pyrazin-4-yl)piperidin-4-yl)methyl)-5-(1-methylcyclopropyl)-1,2,4-oxadiazole-3-carboxamide]: the IC50 was in the range of 10 to 1000 nM at BTK and 1000 to 10000 nM in assay [1] (setting [2]).
For `Cn1cc(-c2cn3nccc3c(N3CCC(C)(CNC(=O)c4cn(C(C)(C)C)nn4)CC3)n2)cn1` [Example 44, 1-(tert-butyl)-N-((4-methyl-1-(6-(1-methyl-1H-pyrazol-4-yl)pyrazolo[1,5-a]pyrazin-4-yl)piperidin-4-yl)methyl)-1H-1,2,3-triazole-4-carboxamide], the IC50 on BTK lay within 10 to 1000 nM; in assay [1] (setting [2]), 1000 to 10000 nM.
As for `Cn1cc(-c2cn3nccc3c(-c3ccc(CNC(=O)c4noc(C(C)(C)C)n4)c(F)c3F)n2)cn1` [Example 88, 5-(tert-butyl)-N-(2,3-difluoro-4-(6-(1-methyl-1H-pyrazol-4-yl)pyrazolo[1,5-a]pyrazin-4-yl)benzyl)-1,2,4-oxadiazole-3-carboxamide], the IC50 was less than 1 nM at BTK and less than 1000 nM in assay [1] (setting [2]).
For `C[C@H]1CN(c2nc(-c3cnn(C)c3)cn3nccc23)CC[C@@H]1CNC(=O)c1noc(C2(C)CC2)n1` (single isomer, unassigned) [Example 148], the IC50 at BTK was in the range of 1 to 10 nM; in assay [1] (setting [2]), 1000 to 10000 nM.
For `Cn1cc(-c2cn3nccc3c(-c3ccc(CNC(=O)c4nnn(C(C)(C)C)n4)c(F)c3)n2)cn1` [Example 7, 2-(tert-butyl)-N-(2-fluoro-4-(6-(1-methyl-1H-pyrazol-4-yl)pyrazolo[1,5-a]pyrazin-4-yl)benzyl)-2H-tetrazole-5-carboxamide], the IC50 on BTK is less than 1 nM; in assay [1] (setting [2]), less than 1000 nM.
For the molecule `Cn1cc(-c2cn3nccc3c(-c3ccc(CNC(=O)c4nnn(C(C)(C)C)n4)c(C(F)F)c3)n2)cn1` [Example 106, 2-(tert-butyl)-N-(2-(difluoromethyl)-4-(6-(1-methyl-1H-pyrazol-4-yl)pyrazolo[1,5-a]pyrazin-4-yl)benzyl)-2H-tetrazole-5-carboxamide], the IC50 on BTK was less than 1 nM; in assay [1] (setting [2]) it was less than 1000 nM.
For the molecule `Cc1cc(-c2nc(-c3cnn(C)c3)cn3nccc23)ccc1CN1CCN(CC(C)C)C(C)C1=O` (centres unmarked) [Example 36, 4-isobutyl-3-methyl-1-(2-methyl-4-(6-(1-methyl-1H-pyrazol-4-yl)pyrazolo[1,5-a]pyrazin-4-yl)benzyl)piperazin-2-one], the IC50 on BTK is 1 to 10 nM; in assay [1] (setting [2]), 1000 to 10000 nM.
On to `Cn1cc(-c2cn3nccc3c(-c3ccc(CNC(=O)c4cn(C(C)(C)C)nn4)c(F)c3F)n2)cn1` [Example 93, 1-(tert-butyl)-N-(2,3-difluoro-4-(6-(1-methyl-1H-pyrazol-4-yl)pyrazolo[1,5-a]pyrazin-4-yl)benzyl)-1H-1,2,3-triazole-4-carboxamide], for which the IC50 is less than 1 nM at BTK and less than 1000 nM in assay [1] (setting [2]).
With `Cn1cc(-c2cn3nccc3c(-c3ccc4c(c3)CN(C3COC3)CC[C@H]4NC(=O)c3cn(C(C)(C)C)nn3)n2)cn1` [Example 39, 1-tert-butyl-N-[(5R)-8-[6-(1-methylpyrazol-4-yl)pyrazolo[1,5-a]pyrazin-4-yl]-2-(oxetan-3-yl)-1,3,4,5-tetrahydro-2-benzazepin-5-yl]triazole-4-carboxamide], the IC50 on BTK was less than 1 nM; in assay [1] (setting [2]), less than 1000 nM.
`Cc1cc(-c2nc(-c3cnn(C)c3)cc3nccn23)ccc1CNC(=O)c1noc(C(C)(C)C)n1` [Example 78, 5-(tert-butyl)-N-(2-methyl-4-(7-(1-methyl-1H-pyrazol-4-yl)imidazo[1,2-c]pyrimidin-5-yl)benzyl)-1,2,4-oxadiazole-3-carboxamide]: the IC50 at BTK was less than 1 nM; in assay [1] (setting [2]), less than 1000 nM.
The matching figures for `Cc1cc(-c2nc(-c3cnn(C)c3)cn3nccc23)ccc1CNC(=O)c1cnn(C(C)(C)C)c1` [Example 17, 1-(tert-butyl)-N-(2-methyl-4-(6-(1-methyl-1H-pyrazol-4-yl)pyrazolo[1,5-a]pyrazin-4-yl)benzyl)-1H-pyrazole-4-carboxamide]: less than 1 nM and less than 1000 nM.
With `Cc1cc(-c2cc(-c3cnn(C)c3)cn3nccc23)ccc1CNC(=O)c1noc(C2(C)CC2)n1` [Example 65, N-(2-methyl-4-(6-(1-methyl-1H-pyrazol-4-yl)pyrazolo[1,5-a]pyridin-4-yl)benzyl)-5-(1-methylcyclopropyl)-1,2,4-oxadiazole-3-carboxamide], the IC50 at BTK was less than 1 nM; in assay [1] (Homo sapiens), less than 1000 nM.
Consider `Cc1cc(-c2nc(N3CCN(C)CC3)cn3nccc23)ccc1CNC(=O)c1cn(C(C)(C)C)nn1` [Example 121, 1-(tert-butyl)-N-(2-methyl-4-(6-(4-methylpiperazin-1-yl)pyrazolo[1,5-a]pyrazin-4-yl)benzyl)-1H-1,2,3-triazole-4-carboxamide trifluoroacetate], for which the IC50 on BTK was in the range of 10 to 1000 nM; in assay [1] (setting [2]), 1000 to 10000 nM.
